Measured values reported in patent US9079870B2, “Thiol mediated/activated prodrugs of sulfur dioxide (SO2) having anti-bacterial activity” (priority 2012, dated 2015).
Where two headings read alike, the source gives them in different places.

Legend:
[1] = system: Mycobacterium tuberculosis H37Rv strain; assay: Antimycobacterial activity assay (MIC, 7H11 agar); assay type: cell-based
[2] = Cysteine-activated sulfur dioxide release, ion chromatography analysis of sulfite; conditions: for SO2 yield, 5 min: 5 min after treatment of compound (100 1M) with 10 equiv of cysteine in pH 7.4 phosphate buffer; for SO2 yield, 30 min: 30 min after treatment of compound (100 1M) with 10 equiv of cysteine in pH 7.4 phosphate buffer; for % SO2 (30 min): 30 min after commencement of the reaction with thiol, per mole of compound
[3] = Mycobacterium tuberculosis, H37RV, Table 2b, Mtb H37Rv
[4] = Mycobacterium tuberculosis, H37RV, Table 2b, inhibit 99% of bacterial growth, Mtb H37Rv
[5] = Table 2b, Mtb H37Rv, read-out: MIC
[6] = Mycobacterium tuberculosis, Table 2b, Mtb H37Rv, read-out: MIC
[7] = Mycobacterium tuberculosis, Table 2b, inhibit 99% of bacterial growth, Mtb H37Rv, read-out: MIC

O=[N+]([O-])c1ccc(S(=O)(=O)NCc2ccc(Cl)cc2)c([N+](=O)[O-])c1 [Compound 3, N-(4-chlorobenzyl)2,4-dinitrophenylsulfonamide]
MIC [1, 3]: 1.07 µM | MIC [1, 4]: 0.4 µg/mL | SO2 yield, 5 min [2]: 77 µM | SO2 yield, 30 min [2]: 96 µM

O=[N+]([O-])c1ccc(S(=O)(=O)NCc2ccc(C(F)(F)F)cc2)c([N+](=O)[O-])c1 [Compound 4, N-(4-trifluoromethylbenzyl) 2,4-dinitrophenylsulfonamide]
MIC [1]: 0.4 µg/mL | MIC [1, 5]: 0.98 µM | SO2 yield, 5 min [2]: 79 µM | SO2 yield, 30 min [2]: 75 µM

O=[N+]([O-])c1ccc(S(=O)(=O)NCc2ccccc2C(F)(F)F)c([N+](=O)[O-])c1 [Compound 5, N-(2-trifluoromethylbenzyl) 2,4-dinitrophenylsulfonamide]
MIC [1]: 1.56 µg/mL | MIC [1, 5]: 3.84 µM | SO2 yield, 5 min [2]: 81 µM | SO2 yield, 30 min [2]: 84 µM

C[C@H](NS(=O)(=O)c1ccc([N+](=O)[O-])cc1[N+](=O)[O-])c1ccccc1 [Compound 12, (S) N-(1-phenylethyl)-2,4-dinitrobenzenesulfonamide]
MIC [1, 3]: 4.44 µM | MIC [1, 4]: 1.56 µg/mL | SO2 yield, 5 min [2]: 80 µM | SO2 yield, 30 min [2]: 97 µM

C[C@@H](NS(=O)(=O)c1ccc([N+](=O)[O-])cc1[N+](=O)[O-])c1ccccc1 [Compound 13, (R) N-(1-phenylethyl)-2,4-dinitrobenzenesulfonamide]
MIC [1, 3]: 4.44 µM | MIC [1, 4]: 1.56 µg/mL | SO2 yield, 5 min [2]: 78 µM | SO2 yield, 30 min [2]: 94 µM

O=[N+]([O-])c1ccc(S(=O)(=O)NCCc2ccccc2)c([N+](=O)[O-])c1 [Compound 14, N-(2-phenylethyl) 2,4-dinitrophenylsulfonamide]
MIC [1]: 0.4 µg/mL | MIC [1, 5]: 1.13 µM | SO2 yield, 5 min [2]: 76 µM | SO2 yield, 30 min [2]: 100 µM

COc1ccccc1N(CCCN(Cc1ccccc1)S(=O)(=O)c1ccc([N+](=O)[O-])cc1[N+](=O)[O-])S(=O)(=O)c1ccc([N+](=O)[O-])cc1[N+](=O)[O-] [Compound 35, N-benzyl-N-(3-(N-(2-methoxyphenyl)-2,4-dinitrophenylsulfonamido)propyl)-2,4-dinitrobenzenesulfonamide]
% SO2 (30 min) [2]: 161%

O=[N+]([O-])c1ccc(S(=O)(=O)N(CCCN(Cc2ccccc2)S(=O)(=O)c2ccccc2[N+](=O)[O-])Cc2ccccc2)c([N+](=O)[O-])c1 [Compound 40, N-benzyl-N-(3-(N-benzyl-2-nitrophenylsulfonamido)propyl)-2,4-dinitrobenzenesulfon-amide]
% SO2 (30 min) [2]: 88%

O=[N+]([O-])c1cccc(S(=O)(=O)N(CCCN(Cc2ccccc2)S(=O)(=O)c2ccc([N+](=O)[O-])cc2[N+](=O)[O-])Cc2ccccc2)c1 [Compound 41, N-benzyl-N-(3-(N-benzyl-3-nitrophenylsulfonamido)propyl)-2,4-dinitrobenzenesulfon-amide]
% SO2 (30 min) [2]: 99%

O=[N+]([O-])c1ccc(S(=O)(=O)N(CCCN(Cc2ccccc2)S(=O)(=O)c2ccc([N+](=O)[O-])cc2[N+](=O)[O-])Cc2ccccc2)cc1 [Compound 42, N-benzyl-N-(3-(N-benzyl-4-nitrophenylsulfonamido)propyl)-2,4-dinitrobenzenesulfon-amide]
% SO2 (30 min) [2]: 98%

CC[C@@H](CO)NCCN[C@@H](CC)CO [Ethambutol, reference compound]
MIC [1, 6]: 7.63 µM | MIC [1, 7]: 1.56 µg/mL

NC(=O)c1cnccn1 [Pyrizinamide, reference compound]
MIC [1, 6]: 50.8 µM | MIC [1, 7]: 6.25 µg/mL

O=S([O-])[O-].[Na+].[Na+] [sodium sulfite, reference compound]
inhibition of growth of Mtb at 100 μg mL-1 ([1]; tested at 100 μg mL-1): inactive against Mtb
